What was measured:
Assay type in all cases: functional
[1] = test system: Candida albicans; test: Antifungal activity against Candida albicans ATCC 90028 assessed as planktonic growth inhibition at 0.08 uM after 48 hrs by M27-A3 protocol based method relative to control; settings: ATCC 90028, 48 h, read-out: GI
[2] = test system: Candida albicans; test: Antifungal activity against Candida albicans ATCC 90028 assessed as planktonic growth inhibition at 0.16 uM after 48 hrs by M27-A3 protocol based method relative to control; settings: ATCC 90028, 48 h, read-out: GI
[3] = test system: Candida albicans; test: Antifungal activity against Candida albicans ATCC 90028 assessed as planktonic growth inhibition at 0.33 uM after 48 hrs by M27-A3 protocol based method relative to control; settings: ATCC 90028, 48 h, read-out: GI
[4] = test system: Candida albicans; test: Antifungal activity against Candida albicans ATCC 90028 assessed as planktonic growth inhibition at 0.65 uM after 48 hrs by M27-A3 protocol based method relative to control; settings: ATCC 90028, 48 h, read-out: GI
[5] = test system: Candida albicans; test: Antifungal activity against Candida albicans ATCC 90028 assessed as planktonic growth inhibition at 1.31 uM after 48 hrs by M27-A3 protocol based method relative to control; settings: ATCC 90028, 48 h, read-out: GI
[6] = test system: Candida albicans; test: Antifungal activity against Candida albicans ATCC 90028 assessed as planktonic growth inhibition at 2.62 uM after 48 hrs by M27-A3 protocol based method relative to control; settings: ATCC 90028, 48 h, read-out: GI
[7] = test system: Candida albicans; test: Antifungal activity against Candida albicans ATCC 90028 assessed as planktonic growth inhibition at 5.24 uM after 48 hrs by M27-A3 protocol based method relative to control; settings: ATCC 90028, 48 h, read-out: GI
[8] = test system: Candida albicans; test: Antifungal activity against Candida albicans ATCC 90028 assessed as planktonic growth inhibition at 10.47 uM after 48 hrs by M27-A3 protocol based method relative to control; settings: ATCC 90028, 48 h, read-out: GI
[9] = test system: Candida albicans; test: Antifungal activity against Candida albicans ATCC 90028 assessed as planktonic growth inhibition at 20.95 uM after 48 hrs by M27-A3 protocol based method relative to control; settings: ATCC 90028, 48 h, read-out: GI
[10] = test system: Candida albicans; test: Antifungal activity against Candida albicans ATCC 90028 assessed as planktonic growth inhibition at 41.9 uM after 48 hrs by M27-A3 protocol based method relative to control; settings: ATCC 90028, 48 h, read-out: GI
[11] = test system: Candida albicans; test: Fungicidal activity against Candida albicans ATCC 90028 assessed as log reduction in fungal load incubated for 48 hrs followed by replating on sabouraud dextrose agar plate and measured after 48 hrs
[12] = test system: Candida albicans; test: Antifungal activity against Candida albicans ATCC 90028 assessed as planktonic growth inhibition at 0.09 uM after 48 hrs by M27-A3 protocol based method relative to control; settings: ATCC 90028, 48 h, read-out: GI
[13] = test system: Candida albicans; test: Antifungal activity against Candida albicans ATCC 90028 assessed as planktonic growth inhibition at 0.18 uM after 48 hrs by M27-A3 protocol based method relative to control; settings: ATCC 90028, 48 h, read-out: GI
[14] = test system: Candida albicans; test: Antifungal activity against Candida albicans ATCC 90028 assessed as planktonic growth inhibition at 0.36 uM after 48 hrs by M27-A3 protocol based method relative to control; settings: ATCC 90028, 48 h, read-out: GI
[15] = test system: Candida albicans; test: Antifungal activity against Candida albicans ATCC 90028 assessed as planktonic growth inhibition at 0.72 uM after 48 hrs by M27-A3 protocol based method relative to control; settings: ATCC 90028, 48 h, read-out: GI
[16] = test system: Candida albicans; test: Antifungal activity against Candida albicans ATCC 90028 assessed as planktonic growth inhibition at 1.44 uM after 48 hrs by M27-A3 protocol based method relative to control; settings: ATCC 90028, 48 h, read-out: GI
[17] = test system: Candida albicans; test: Antifungal activity against Candida albicans ATCC 90028 assessed as planktonic growth inhibition at 2.88 uM after 48 hrs by M27-A3 protocol based method relative to control; settings: ATCC 90028, 48 h, read-out: GI
[18] = test system: Candida albicans; test: Antifungal activity against Candida albicans ATCC 90028 assessed as planktonic growth inhibition at 5.76 uM after 48 hrs by M27-A3 protocol based method relative to control; settings: ATCC 90028, 48 h, read-out: GI
[19] = test system: Candida albicans; test: Antifungal activity against Candida albicans ATCC 90028 assessed as planktonic growth inhibition at 11.51 uM after 48 hrs by M27-A3 protocol based method relative to control; settings: ATCC 90028, 48 h, read-out: GI
[20] = test system: Candida albicans; test: Antifungal activity against Candida albicans ATCC 90028 assessed as planktonic growth inhibition at 23.02 uM after 48 hrs by M27-A3 protocol based method relative to control; settings: ATCC 90028, 48 h, read-out: GI
[21] = test system: Candida albicans; test: Antifungal activity against Candida albicans ATCC 90028 assessed as planktonic growth inhibition at 46.05 uM after 48 hrs by M27-A3 protocol based method relative to control; settings: ATCC 90028, 48 h, read-out: GI

Row | Structure (SMILES) | inhibition of growth at 0.08 µM [1] | inhibition of growth at 0.16 µM [2] | inhibition of growth at 0.33 µM [3] | inhibition of growth at 0.65 µM [4] | inhibition of growth at 1.31 µM [5] | inhibition of growth at 2.62 µM [6] | inhibition of growth at 5.24 µM [7] | inhibition of growth at 10.47 µM [8] | inhibition of growth at 20.95 µM [9] | inhibition of growth at 41.9 µM [10] | log(activity) [11] | also measured
1 | Cc1ccc(-c2nnn(CCCN3CCCC3c3ccc(Cl)cc3)n2)cc1 (configuration not stated) | 99.4% | 99.5% | 99.2% | 99.1% | 99.2% | 99.3% | 99% | 99.4% | 99.2% | 98.8% | -0.4 | –
2 | Cc1ccc(C2CCCN2CCCn2nnc(-c3ccccc3Cl)n2)cc1 (configuration not stated) | 98.8% | 98.9% | 99.2% | 99.2% | 99.2% | 99.3% | 99.4% | 99.5% | 99.5% | 99.6% | -0.2 | –
3 | Cc1cccc(C2CCCN2CCCn2nnc(-c3ccccc3Cl)n2)c1 (configuration not stated) | 99.1% | 99.1% | 99.2% | 99.2% | 99.2% | 99.3% | 99.4% | 99.6% | 99.7% | 99.8% | -0.5 | –
4 | Cc1ccc(C2CCCN2CCCn2nnc(-c3ccccc3)n2)cc1 (configuration not stated) | – | – | – | – | – | – | – | – | – | – | -0.6 | inhibition of growth at 0.09 µM [12]: 98.9%; inhibition of growth at 0.18 µM [13]: 99.3%; inhibition of growth at 0.36 µM [14]: 99%; inhibition of growth at 0.72 µM [15]: 99.3%; inhibition of growth at 1.44 µM [16]: 99.2%; inhibition of growth at 2.88 µM [17]: 99.2%; inhibition of growth at 5.76 µM [18]: 99.2%; inhibition of growth at 11.51 µM [19]: 99.5%; inhibition of growth at 23.02 µM [20]: 99%; inhibition of growth at 46.05 µM [21]: 99%
5 | Cc1ccc(C2CCCN2CCCn2nnc(-c3ccc(Cl)cc3)n2)cc1 (configuration not stated) | 99.2% | 99.1% | 99.3% | 99.2% | 99.4% | 99.2% | 99.4% | 99.4% | 99.4% | 99.2% | -0.5 | –
6 | Cc1ccc(-c2nnn(CCCN3CCCC3c3ccccc3)n2)cc1 (configuration not stated) | – | – | – | – | – | – | – | – | – | – | -1 | inhibition of growth at 0.09 µM [12]: 99%; inhibition of growth at 0.18 µM [13]: 99.8%; inhibition of growth at 0.36 µM [14]: 98.8%; inhibition of growth at 0.72 µM [15]: 98.8%; inhibition of growth at 1.44 µM [16]: 97.8%; inhibition of growth at 2.88 µM [17]: 95.1%; inhibition of growth at 5.76 µM [18]: 94.4%; inhibition of growth at 11.51 µM [19]: 93.4%; inhibition of growth at 23.02 µM [20]: 99.4%; inhibition of growth at 46.05 µM [21]: 98.5%
7 | Cc1cccc(C2CCCN2CCCn2nnc(-c3ccc(Cl)cc3)n2)c1 (configuration not stated) | 99.3% | 99.3% | 99.3% | 99.3% | 99.3% | 99.3% | 99.3% | 98.9% | 98.8% | 98.9% | -0.4 | –

From ChEMBL document CHEMBL4411303, “Synthesis of tetrazole derivatives bearing pyrrolidine scaffold and evaluation of their antifungal activity against Candida albicans” (Eur J Med Chem, 2019)
